For series [1], the system named is cerebral blood flow of cats. Nature of the series: Investigation of cerebral blood flow of cats (heat-conducting thermoprobe according to Hensel). The class given is in vivo. Particulars: for Change of blood perfusion half-value time: action time; for Change of blood perfusion Δ λ: heat transfer factor λ. Here is the method: The test animals are cats under chloralose urethane narcosis (70+200 mg/kg i.p.). The top of the skull is opened in the area of the frontal gyrus marginalis or suprasylvicus. […] The action time is given as the half value time and the intensity of action is determined according to Golenhofen et al. as a heat transfer factor λ. The recording was performed with thermoprobes using a two-channel Pluvograph of Hartmann & Braun, Frankfurt am Main, Germany. Other circulation parameters recorded at the same time were fed to a Hellige multi-channel recorder.

Series [2] can be described thus: Toxicity in mg/kg (mouse). Particulars: in vivo.
The subject of series [3] is rate of blood circulation. Particulars: background statement, in words; cited from earlier work.
The conditions of series [4]: background statement, in words; cited from earlier work.
The test system of another series is cerebral blood flow. Nature of the series: Cerebral blood flow, statements in the description. The class given is in vivo. Particulars: in words.

Broadly, the LD50 is the dose expected to kill half of the subjects tested. High values mean lower toxicity, low ones greater toxicity. Take `CC(O)CCCCn1cnc2c1c(=O)n(C)c(=O)n2C` (stereo not shown) [1,3-dimethyl-7-(5-hydroxyhexyl)-xanthine]: in series [1] (5 mg/kg i.v.), the “Change of blood perfusion half-value time” value is on record as 1.8 min and the “Change of blood perfusion Δ λ” value is recorded as “+0.18”. In series [2] (ip), the LD50 lay in the range of 250 to 500 mg/kg.

In the case of `CC(O)CCCCCn1cnc2c1c(=O)n(C)c(=O)n2C` (stereo not shown) [1,3-dimethyl-7-(6-hydroxyheptyl)-xanthine], the entries for the “Change of blood perfusion half-value time” value in series [1] (1 mg/kg i.v.), in series [1] (2 mg/kg i.v.) and in series [1] (5 mg/kg i.v.) were 0.6 min, 1.2 min and 1.8 min, respectively. In addition, the “Change of blood perfusion Δ λ” value is reported as “+0.70” in series [1] (1 mg/kg i.v.), “+0.42” in series [1] (2 mg/kg i.v.) and “+1.17” in series [1] (5 mg/kg i.v.). Further, the LD50 in series [2] (ip) is 250 to 500 mg/kg.

On to `CC(O)Cn1c(=O)c2c(ncn2C)n(C)c1=O` (stereo not shown) [1-(2-hydroxypropyl)-3,7-dimethylxanthine], for which the “Change of blood perfusion half-value time” value in series [1] (5 mg/kg i.v.) was determined as 0.50 min; in series [1] (10 mg/kg i.v.), 1.50 min; in series [1] (50 mg/kg i.v.), 17.5 min; in series [1] (100 mg/kg i.v.) it was 6.5 min. Also, the “Change of blood perfusion Δ λ” value in series [1] (5 mg/kg i.v.) is recorded as -0.25; in series [1] (10 mg/kg i.v.), -0.50; in series [1] (50 mg/kg i.v.) it was -5.25; in series [1] (100 mg/kg i.v.) it was -10.00. In addition, in series [3], the pharmacological activity result is listed as “reduced pharmacological activity”. Further, the “water solubility and/or toxicity versus theobromine, theophylline and trialkylxanthines” value in series [4] was “greater degree of water solubility and/or lower toxicity than theobromine,theophylline and trialkylxanthines”.

In the case of `CC(O)CCCCn1c(=O)c2c(ncn2C)n(C)c1=O` (stereo not shown) [1-(5-hydroxyhexyl)-3,7-dimethylxanthine], the “Change of blood perfusion half-value time” value in series [1] (3 mg/kg i.v.) is 4.3 min; in series [1] (5 mg/kg i.v.) it was 5.0 min; in series [1] (10 mg/kg i.v.), 3.5 min. Besides, the entries for the “Change of blood perfusion Δ λ” value in series [1] (3 mg/kg i.v.), in series [1] (5 mg/kg i.v.) and in series [1] (10 mg/kg i.v.) were “+1.80”, “+1.55” and “+2.65”, respectively. The LD50 in series [2] (iv) amounted to 195 mg/kg.

For the compound `Cn1c(=O)c2c(ncn2CC(O)CO)n(C)c1=O` (stereo not shown) [7-(2,3-dihydroxypropyl)-1,3-dimethylxanthine], the “Change of blood perfusion half-value time” value in series [1] (10 mg/kg i.v.) worked out at 1.7 min; in series [1] (25 mg/kg i.v.) it was 6.0 min; in series [1] (50 mg/kg i.v.), 3.0 min; in series [1] (100 mg/kg i.v.), 3.0 min. Moreover, the “Change of blood perfusion Δ λ” value is -0.23 in series [1] (25 mg/kg i.v.), “+0.20” in series [1] (50 mg/kg i.v.) and -0.05 in series [1] (100 mg/kg i.v.). In addition, the pharmacological activity entry in series [3] is “reduced pharmacological activity”. The “water solubility and/or toxicity versus theobromine, theophylline and trialkylxanthines” value in series [4] is “greater degree of water solubility and/or lower toxicity than theobromine,theophylline and trialkylxanthines”.

With `CC(O)Cn1cnc2c1c(=O)n(C)c(=O)n2C` (stereo not shown) [7-(2-Hydroxypropyl)-1,3-dimethyl-xanthine], in series [3], the pharmacological activity entry is on record as “reduced pharmacological activity”. Besides, the “water solubility and/or toxicity versus theobromine, theophylline and trialkylxanthines” value in series [4] was “greater degree of water solubility and/or lower toxicity than theobromine,theophylline and trialkylxanthines”.

With `Cn1c(=O)c2c(ncn2CCO)n(C)c1=O` [7-(2-hydroxyethyl)-1,3-dimethylxanthine], the “Change of blood perfusion half-value time” value in series [1] (5 mg/kg i.v.) is reported as 0.23 min; in series [1] (10 mg/kg i.v.), 0.50 min; in series [1] (25 mg/kg i.v.), 6.73 min; in series [1] (50 mg/kg i.v.), 7.17 min; in series [1] (100 mg/kg i.v.), 8.00 min. The “Change of blood perfusion Δ λ” value in series [1] (5 mg/kg i.v.) is -0.50; in series [1] (10 mg/kg i.v.), -1.33; in series [1] (25 mg/kg i.v.), -2.17; in series [1] (50 mg/kg i.v.), -5.33; in series [1] (100 mg/kg i.v.), -6.00.

`Cn1c(=O)c2[nH]cnc2n(C)c1=O.NCCN` [theophylline-ethylenediamine, 1,3-dimethylxanthine-ethylene-diamine]: the “Change of blood perfusion half-value time” value in series [1] (1 mg/kg i.v.) is 1.8 min; in series [1] (2 mg/kg i.v.) it was 1.8 min; in series [1] (5 mg/kg i.v.), 3.3 min; in series [1] (10 mg/kg i.v.), 1.7 min. Moreover, the “Change of blood perfusion Δ λ” value is “+0.19” in series [1] (1 mg/kg i.v.), “+0.15” in series [1] (2 mg/kg i.v.), “+0.18” in series [1] (5 mg/kg i.v.) and “+0.53” in series [1] (10 mg/kg i.v.). In addition, the LD50 in series [2] (ip) was 217 mg/kg. For the same compound, the “action on cerebral blood flow” value in the series with cerebral blood flow was “increases the cerebral blood flow, but only to a limited extent and only for a short time”.

Source of the values: patent US4576947A, “Pharmaceutical compositions” (Hoechst Aktiengesellschaft, priority 1972, dated 1986).
